# From paper PMC3183052, “Immunoprotectivity of HLA-A2 CTL Peptides Derived from Respiratory Syncytial Virus Fusion Protein in HLA-A2 Transgenic Mouse” (PLoS ONE, 2011)
# System: peptide-loaded dendritic cells from HLA-Tg B6 mice
# Assay: In vitro CTL assay (CFSE/7-AAD) with pulmonary effector lymphocytes
# Format: cell-based, mouse
# Settings: pulmonary effector lymphocytes of immunized, RSV-challenged mice; peptide-loaded CFSE-labeled DCs; E:T 10:1 and 50:1; 7-AAD/CFSE flow cytometry
# Experimental: Dendritic cells (DCs) isolated from HLA-A*0201-Tg B6 mice were used as target cells for CTL assay. Briefly, tibia were isolated from 6–8 weeks old mice and rinsed with 75% alcohol before their incubation with lymphocyte culture medium (LCM, RPMI containing 5% FBS, 20 mM HEPES, 50 µM 2-mecaptoenthanol, 1× P/S). The myeloid tissues were removed from the tibia with LCM and filtrated through 40 µm cell strainer (BD Falcon). The filtrates were centrifuged at 1200 rpm for 5 minutes and the cell pellet was resuspended in 2 mL RBC lysis solution (eBioscience), and incubated for 5 minutes followed by addition of 10 mL of 1× PBS buffer to stop lysis. […]
# A non-radioactive assay for cell-mediated cytotoxicity using a green fluorescent probe CFSE to label target cells in combination with 7-amino-actinomycin D (7AAD), a red fluorescent probe to label dead effectors and target cells, was used to assess the presence of RSV F protein-specific CTLs in spleens or lungs of the immunized animals. […] CFSE was measured in FL1 channel and 7-AAD in FL3 channel. The percentage of CFSE/7-AAD double positive target cells (i.e., DCs cell death) was analyzed. […]
# Figure 5 Induction of pulmonary IFN-γ and CTL activity in peptide immunized transgenic mice challenged with RSV. At day 4 post RSV infection, lung homogenates were prepared and the following were measured. […]
sequence,measurement,value
"YMLTNSELL [peptide 14, HLA-A*0201-restricted 9-mer synthetic peptide from F protein of RSV-B1 strain]","CTL activity, target cell lysis",efficient in target cell lysis
